{"source": "paper PMC5773580", "about": "“A synthetic combinatorial approach to disabling deviant Hedgehog signaling” (Scientific Reports, 2018)", "tested_on": "HDAC activity (acetylated tubulin) in NIH-3T3 cells", "experiment": "Acetylation assay, Western blot of acetylated tubulin", "format": "cell-based", "settings": "48hrs", "experimental": "For analyzing acetylation status of histone 3 and tubulin, NIH3T3 cells were grown to confluence in 6-well plates. After 48hrs of treatment with indicated chemicals, cells were lysed in RIPA buffer or 1% NP40/phosphate buffered saline/protease inhibitors (SIGMA, #S8820), the lysate cleared using a microcentrifuge, then 6 × sample loading buffer (Bioland Scientific) added to the supernatant. Proteins were separated on SDS-PAGE (BioRad Criterion TGX Precast Gels). Antibodies used for analyzing the blots were: acetylated tubulin (SIGMA, #T6793), tubulin, acetyl-histone H3 (Lys23), and histone H3 (Cell Signaling Technology, #2125 S, #8848 and #9717, respectively). Chemiluminescence was detected using a Li-COR Odyssey Imaging System.", "data": [{"compound": "O=C(CCCCCCC(=O)Nc1ccc(Cl)c(C(=O)Nc2ccc(NC(=O)c3cc(Cl)ccc3Cl)cc2)c1)NO", "note": "[IHR-SAHA]", "values": [{"measurement": "HDAC inhibitory activity, acetylated tubulin accumulation (ratio to total tubulin), compared with SAHA", "value": "increase in anti-HDAC activity"}]}]}
